Laboratory results taken from ChEMBL document CHEMBL6120978, “Anticancer activity of salinomycin quaternary phosphonium salts” (Eur J Med Chem, 2025).
Active and inactive are the calls of the source. No cut-off for these calls is given here.

Assays:
A549 [1] = experiment: Induction of apoptosis in human A549 cells assessed as early apoptotic cells at IC50 incubated for 72 hrs by Annexin V-FITC staining based flow cytometry analysis (reference value: 1.68 %); assay type: functional
[2] = Selectivity index, ratio of IC50 for cytotoxicity against human HaCaT cells to IC50 for cytotoxicity against human SW620 cells; assay type: toxicity, cell-based; details: HaCaT cells versus SW620 cells, read-out: Ratio IC50
MDA-MB-231 [3] = experiment: Induction of apoptosis in human MDA-MB-231 cells assessed as necrotic cells at IC50 incubated for 72 hrs by Annexin V-FITC staining based flow cytometry analysis (reference value: 1.17 %); assay type: functional
[4] = Selectivity index, ratio of IC50 for cytotoxicity against chinese hamster V79 cells to IC50 for cytotoxicity against human SW480 cells; assay type: toxicity, cell-based; details: V79 cells versus SW480 cells, read-out: Ratio IC50
A549 [5] = experiment: Induction of cell cycle arrest in human A549 cells assessed as accumulation of cells at SubG1 phase at IC50 incubated for 24 hrs by propidium iodide staining based flow cytometry analysis (reference value: 0.71 %); assay type: functional
[6] = Cytotoxicity against chinese hamster V79 cells incubated for 72 hrs by MTT assay; assay type: toxicity, cell-based, Cricetulus griseus
[7] = Selectivity index, ratio of IC50 for cytotoxicity against human HaCaT cells to IC50 for cytotoxicity against human MDA-MB-231 cells; assay type: toxicity, cell-based; details: HaCaT cells versus MDA-MB-231 cells, read-out: Ratio IC50
[8] = test system: Staphylococcus epidermidis; experiment: Antimicrobial activity against Staphylococcus epidermidis ATCC 35984 incubated for 18 hrs by twofold microdilution method; assay type: functional
SW480 = experiment: Cytotoxicity against human SW480 cells incubated for 72 hrs by MTT assay; assay type: functional, cell-based; details: SW480, 72 h
SW-620 = experiment: Cytotoxicity against human SW620 cells incubated for 72 hrs by MTT assay; assay type: functional, cell-based; details: SW-620, 72 h
MDA-MB-231 [9] = experiment: Effect on mitochondrial function in human MDA-MB-231 cells assessed as fold increase in mean fluorescence intensity at IC50 incubated for 48 hrs by MitoTracker Red CMXRos staining based flow cytometry analysis relative to control; assay type: functional
MDA-MB-231 [10] = experiment: Induction of apoptosis in human MDA-MB-231 cells assessed as early apoptotic cells at IC50 incubated for 72 hrs by Annexin V-FITC staining based flow cytometry analysis (reference value: 4.23 %); assay type: functional
Mitochondrial membrane [11] = experiment: Induction of mitochondrial membrane potential loss in human MDA-MB-231 cells assessed as red fluorescence at IC50 incubated for 48 hrs MitoTrackerRed CMXRos staining based flow cytometry analysis (reference value: 91.1 %); assay type: cell membranes
A549 [12] = experiment: Effect on mitochondrial function in human A549 cells assessed as increase in MTRed CMXRos positive cells at IC50 incubated for 48 hrs by MitoTracker Red CMXRos staining based flow cytometry analysis relative to control; assay type: functional
MDA-MB-231 [13] = experiment: Effect on mitochondrial mass in human MDA-MB-231 cells assessed as increase in MTGreen positive cells at IC50 incubated for 48 hrs by MitoTracker Green FM staining based flow cytometry analysis relative to control; assay type: functional
Pseudomonas aeruginosa = experiment: Antimicrobial activity against Pseudomonas aeruginosa ATCC 15442 incubated for 18 hrs by twofold microdilution method; assay type: functional
[14] = Selectivity index, ratio of IC50 for cytotoxicity against human HaCaT cells to IC50 for cytotoxicity against human PC-3 cells; assay type: toxicity, cell-based; details: HaCaT cells versus PC-3 cells, read-out: Ratio IC50
MDA-MB-231 [15] = experiment: Induction of ROS generation of human MDA-MB-231 cells assessed as fold increase at IC50 incubated for 6 hrs by CellROX Green staining based spectrofluorometer analysis relative to control; assay type: functional
[16] = Selectivity index, ratio of IC50 for cytotoxicity against human HaCaT cells to IC50 for cytotoxicity against human SW480 cells; assay type: toxicity, cell-based; details: HaCaT cells versus SW480 cells, read-out: Ratio IC50
Staphylococcus aureus = experiment: Antimicrobial activity against Staphylococcus aureus ATCC 6538 incubated for 18 hrs by twofold microdilution method; assay type: functional
MDA-MB-231 [17] = experiment: Induction of cell cycle arrest in human […] cells assessed as accumulation of cells at G0/G1 phase at IC50 incubated for 24 hrs by propidium iodide staining based flow cytometry analysis (reference value: 50.9 %); assay type: functional
MDA-MB-231 [18] = experiment: Induction of apoptosis in human MDA-MB-231 cells assessed as late apoptotic cells at IC50 incubated for 72 hrs by Annexin V-FITC staining based flow cytometry analysis (reference value: 3.07 %); assay type: functional
PC-3 = experiment: Cytotoxicity against human PC-3 cells incubated for 72 hrs by MTT assay; assay type: functional, cell-based; details: PC-3, 72 h
Escherichia coli = experiment: Antimicrobial activity against Escherichia coli ATCC 25922 incubated for 18 hrs by twofold microdilution method; assay type: functional
A549 [19] = experiment: Induction of apoptosis in human A549 cells assessed as necrotic cells at IC50 incubated for 72 hrs by Annexin V-FITC staining based flow cytometry analysis (reference value: 0.97 %); assay type: functional
[20] = test system: Staphylococcus epidermidis; experiment: Antimicrobial activity against Staphylococcus epidermidis ATCC 12228 incubated for 18 hrs by twofold microdilution method; assay type: functional
Mitochondrial membrane [21] = experiment: Induction of mitochondrial membrane potential loss in human A549 cells assessed as red fluorescence at IC50 incubated for 48 hrs MitoTrackerRed CMXRos staining based flow cytometry analysis (reference value: 91.1 %); assay type: cell membranes
MDA-MB-231 [22] = experiment: Induction of cell cycle arrest in human […] cells assessed as accumulation of cells at G2 phase at IC50 incubated for 24 hrs by propidium iodide staining based flow cytometry analysis; assay type: functional
[23] = Selectivity index, ratio of IC50 for cytotoxicity against chinese hamster V79 cells to IC50 for cytotoxicity against human SW620 cells; assay type: toxicity, cell-based; details: V79 cells versus SW620 cells, read-out: Ratio IC50
MDA-MB-231 [24] = experiment: Induction of apoptosis in human MDA-MB-231 cells assessed as viable cells at IC50 incubated for 72 hrs by Annexin V-FITC staining based flow cytometry analysis (reference value: 91.53 %); assay type: functional
A549 [25] = experiment: Induction of apoptosis in human A549 cells assessed as viable cells at IC50 incubated for 72 hrs by Annexin V-FITC staining based flow cytometry analysis (reference value: 95.49 %); assay type: functional
A549 [26] = experiment: Induction of ROS generation of human A549 cells assessed as fold increase at IC50 incubated for 6 hrs by CellROX Green staining based spectrofluorometer analysis relative to control; assay type: functional
A549 [27] = experiment: Cytotoxicity against human A549 cells incubated for 72 hrs by MTT assay; assay type: functional, cell-based; details: A549, 72 h
MDA-MB-231 [28] = experiment: Cytotoxicity against human MDA-MB-231 cells incubated for 72 hrs by MTT assay; assay type: functional, cell-based; details: MDA-MB-231, 72 h
[29] = Selectivity index, ratio of IC50 for cytotoxicity against chinese hamster V79 cells to IC50 for cytotoxicity against human PC-3 cells; assay type: toxicity, cell-based; details: V79 cells versus PC-3 cells, read-out: Ratio IC50
MDA-MB-231 [30] = experiment: Induction of cell cycle arrest in human […] cells assessed as accumulation of cells at S phase at IC50 incubated for 24 hrs by propidium iodide staining based flow cytometry analysis; assay type: functional
MDA-MB-231 [31] = experiment: Effect on mitochondrial mass in human MDA-MB-231 cells assessed as fold increase in mean fluorescence intensity at IC50 incubated for 48 hrs by MitoTracker Green FM staining based flow cytometry analysis relative to control; assay type: functional

| Structure (SMILES) | Activity (A549 [1]) [%] | selectivity ratio [2] | Activity (MDA-MB-231 [3]) [%] | selectivity ratio [4] | Activity (A549 [5]) | IC50 at 72 h [6] [nM] | selectivity ratio [7] | MIC [8] [µg/mL] | IC50 (SW480) [nM] | IC50 (SW-620) [nM] | fold change (FC) (MDA-MB-231 [9]) | Activity (MDA-MB-231 [10]) [%] | Activity (Mitochondrial membrane [11]) [%] | Activity (A549 [12]) [%] | Activity (MDA-MB-231 [13]) [%] | MIC (Pseudomonas aeruginosa) [µg/mL] | selectivity ratio [14] | fold change (FC) (MDA-MB-231 [15]) | selectivity ratio [16] | MIC (Staphylococcus aureus) [µg/mL] | other results |
| --- | --- | --- | --- | --- | --- | --- | --- | --- | --- | --- | --- | --- | --- | --- | --- | --- | --- | --- | --- | --- | --- |
| CC[C@@H](C(=O)[C@@H](C)[C@@H](O)[C@H](C)[C@@H]1O[C@@H]([C@@H](CC)C(=O)OCCCC[P+](c2ccccc2)(c2ccccc2)c2ccccc2)CC[C@@H]1C)[C@H]1O[C@]2(C=C[C@@H](O)[C@]3(CC[C@@](C)([C@H]4CC[C@](O)(CC)[C@H](C)O4)O3)O2)[C@H](C)C[C@@H]1C.[Br-] | 59.17 | 8.8 | 5.23 | 0.3 | 6% | 130 | 1.7 | 1 | 390 | 140 | 3 | 27.96 | 39.1 | 50 | 90 | 256 | 0.9 | 2 | 3.2 | 1 | Activity (MDA-MB-231 [17]): 77.7%; Activity (MDA-MB-231 [18]): 15.32%; IC50 (PC-3): 1350 nM; MIC (Escherichia coli): 256 µg/mL; Activity (A549 [19]): 2.13%; MIC [20]: 2 µg/mL; Activity (Mitochondrial membrane [21]): 58.3%; Activity (MDA-MB-231 [22]): inactive; selectivity ratio [23]: 0.9; Activity (MDA-MB-231 [24]): 51.49%; Activity (A549 [25]): 31.8%; fold change (FC) (A549 [26]): 2; IC50 (A549 [27]): 670 nM; IC50 (MDA-MB-231 [28]): 740 nM; selectivity ratio [29]: 0.1; Activity (MDA-MB-231 [30]): inactive; fold change (FC) (MDA-MB-231 [31]): 8 |
| CCCC[P+](CCCC)(CCCC)CCCCOC(=O)[C@H](CC)[C@H]1CC[C@H](C)[C@H]([C@@H](C)[C@H](O)[C@H](C)C(=O)[C@H](CC)[C@H]2O[C@]3(C=C[C@@H](O)[C@]4(CC[C@@](C)([C@H]5CC[C@](O)(CC)[C@H](C)O5)O4)O3)[C@H](C)C[C@@H]2C)O1.[Br-] | 52.57 | 1.3 | 5.15 | 1.2 | Active | 590 | 0.8 | 2 | 490 | 520 | 5 | 39.5 | 29.4 | 50 | 90 | > 256 | 0.5 | 2 | 1.4 | 2 | Activity (MDA-MB-231 [17]): 76.2%; Activity (MDA-MB-231 [18]): 21.8%; IC50 (PC-3): 1450 nM; MIC (Escherichia coli): > 256 µg/mL; Activity (A549 [19]): 12.94%; MIC [20]: 2 µg/mL; Activity (Mitochondrial membrane [21]): 67.3%; Activity (MDA-MB-231 [22]): inactive; selectivity ratio [23]: 1.1; Activity (MDA-MB-231 [24]): 33.55%; Activity (A549 [25]): 19.91%; fold change (FC) (A549 [26]): 2; IC50 (A549 [27]): 860 nM; IC50 (MDA-MB-231 [28]): 900 nM; selectivity ratio [29]: 0.4; Activity (MDA-MB-231 [30]): inactive; fold change (FC) (MDA-MB-231 [31]): 8 |
